{
  "source": "patent US20110009352A1",
  "about": "“RESTORATIVE AGENT FOR ANTIBACTERIAL PEPTIDE PRODUCTION ABILITY” (Minophagen Pharmaceutical Co., LTD., priority 2009, published 2011)",
  "key": {"[1]": {"tested_on": "MBD-3", "assay": "Amount of MBD-3 in culture supernatant of LPS-treated epidermal keratinocytes and/or Gr-1+CD11b+ cells (Transwell, ELISA)", "assay_type": "cell-based, mouse", "conditions": "10 μg/ml, 48 hours", "protocol": "(§1) Epidermal keratinocytes (EK) were collected from the skin of a normal mouse, and a cell solution was prepared to a concentration of 2×10^6 cells/ml using RPMI1640 medium supplemented with 10% inactivated fetal bovine serum. In order to induce MBD-3, the cells were treated with lipopolysaccharides (LPS) in an amount of 1 μg/ml for 6 hours. Furthermore, a normal mouse was given a burn injury on its dorsal side, and after 12 hours, Gr-1^+CD11b^+ cells were collected from the skin tissues around the burn site. A cell solution of the collected cells was prepared to a concentration of 5×10^5 cells/ml using RPMI1640 medium supplemented with 10% inactivated fetal bovine serum. In the co-presence of glycyrrhizin in an amount of 10 μg/ml, the LPS-treated epidermal keratinocytes and the Gr-1^+CD11b^+ cells were cultured in a same Transwell at 37° C. After 48 hours from the initiation of culture, the amount of MBD-3 in the supernatant of the culture fluid was measured by ELISA. The experiment was carried out in the same manner as in Example 5, except that glycyrrhizin was not allowed to be co-present, and the amount of MBD-3 in the supernatant of the culture fluid was measured. The experiment was carried out in the same manner as in Example 5, except that only LPS-treated epidermal keratinocytes (2×10^6 cells/ml) were cultured without allowing glycyrrhizin to be co-present, and the amount of MBD-3 in the supernatant of the culture fluid was measured. The experiment was carried out in the same manner as in Example 5, except that only LPS-treated epidermal keratinocytes (2×10^6 cells/ml) were cultured in the co-presence of glycyrrhizin in an amount of 10 μg/ml, and the amount of MBD-3 in the supernatant of the culture fluid was measured. The experiment was carried out in the same manner as in Example 5, except that only Gr-1^+CD11b^+ cells (5×10^5 cells/ml) were cultured without allowing glycyrrhizin to be co-present, and the amount of MBD-3 in the supernatant of the culture fluid was measured."}, "[2]": {"tested_on": "Pseudomonas aeruginosa", "assay": "Survival rate of burn-injured, Pseudomonas aeruginosa-administered mice", "assay_type": "in vivo, mouse", "protocol": "A normal mouse was given a burn injury on the dorsal side, and Pseudomonas aeruginosa was applied to the burn site in an amount of 100 CFU (Colony-Forming Units). Subsequently, glycyrrhizin was intraperitoneally administered to the mouse at 2 hours, 24 hours and 72 hours after the occurrence of burn injury, each time in an amount of 10 mg per kilogram of body weight of the mouse (an amount of 10 mg/kg), and it was checked whether the mouse was alive or dead. The same operation was carried out on 10 mice, and the survival rate of the mice was checked. The horizontal axis of the graph of FIG. 1 represents the number of days (days) after the Pseudomonas aeruginosa infection.\nThe experiment was carried out in the same manner as in Example 1, except that physiological saline was intraperitoneally administered instead of glycyrrhizin, and the survival rate of the mice was checked."}, "[3]": {"tested_on": "MBD-1", "assay": "Amount of MBD-1 in skin tissue homogenate around the burn site (ELISA)", "assay_type": "in vivo", "conditions": "10 mg/kg i.p. 2 hours after burn, skin collected 0.5-24 hours after burn", "protocol": "A normal mouse was given a burn injury on its dorsal side, and was intraperitoneally administered with glycyrrhizin in an amount of 10 mg per kg of body weight of the mouse (an amount of 10 mg/kg), 2 hours after the occurrence of burn injury. The skin tissue was collected from the surroundings of the burn site after 0.5 hours, 6 hours, 12 hours, 18 hours and 24 hours from the occurrence of burn injury, and the collected skin tissues were homogenized. The amount of MBD-1 in the homogenate liquid was measured by ELISA. The horizontal axis of the graph of FIG. 5 represents the time (hours) after the occurrence of burn injury. The experiment was carried out in the same manner as in Example 3, except that physiological saline was intraperitoneally administered instead of glycyrrhizin, and the amount of MBD-1 in the homogenate liquid was measured."}, "[4]": {"tested_on": "IL-10", "assay": "IL-10 production by Gr-1+CD11b+ cells (ELISA)", "assay_type": "cell-based, mouse", "conditions": "10 μg/ml; 48 hours; vs no glycyrrhizin", "protocol": "(§2) A normal mouse was given a burn injury on its dorsal side, and after 12 hours, Gr-1^+CD11b^+ cells (2×10^6 cells/ml) were collected from the skin tissue around the burn site. Using the keratinocyte culture medium as a medium, the Gr-1^+CD11b^+ cells were cultured in a 96-well plate at 37° C. in the co-present of glycyrrhizin in an amount of 10 μg/ml. After 48 hours from the initiation of culture, the amounts of CCL2 and IL-10 in the supernatant of the culture fluid were measured by ELISA. […] The experiment was carried out in the same manner as in Example 10, except that glycyrrhizin was not made to be co-present, and the amounts of CCL2 and IL-10 in the supernatant of the culture fluid were measured."}, "[5]": {"tested_on": "Pseudomonas aeruginosa", "assay": "Amount of Pseudomonas aeruginosa in blood and spleen homogenate specimens of infected burn mice (colony counting)", "assay_type": "in vivo", "conditions": "100 CFU, 10 mg/kg i.p. at 2 and 12 hours after infection, 48 hours after infection", "protocol": "A normal mouse was given a burn injury on its dorsal side, and was infected at the burn site with Pseudomonas aeruginosa in an amount of 100 CFU. Subsequently, glycyrrhizin was intraperitoneally administered to the mouse at 2 hours and 12 hours after the infection with Pseudomonas aeruginosa, each time in an amount of 10 mg per kilogram of body weight of the mouse (an amount of 10 mg/kg). Subsequently, after 48 hours from the infection with Pseudomonas aeruginosa, blood and spleen were collected from the mouse, and the amounts of Pseudomonas aeruginosa in the blood specimen and the spleen homogenate specimen were measured by a colony-counting method. The vertical axis of the graph of FIG. 4 represents the amount of Pseudomonas aeruginosa in 1 ml of the specimen (amount of CFU). The experiment was carried out in the same manner as in Example 2, except that physiological saline was intraperitoneally administered instead of glycyrrhizin, and the amounts of Pseudomonas aeruginosa in the blood specimen and the spleen homogenate specimen were measured."}, "[6]": {"tested_on": "MBD-1", "assay": "Amount of MBD-1 in culture supernatant of epidermal keratinocytes and/or Gr-1+CD11b+ cells (Transwell, ELISA)", "assay_type": "cell-based, mouse", "conditions": "10 μg/ml, 48 hours", "protocol": "as §1, with “serum.” for “serum. In order to induce MBD-3, the cells were treated with lipopolysaccharides (LPS) in an amount of 1 μg/ml for 6 hours.”, “the” for “the LPS-treated”, “MBD-1” for “MBD-3”, “4,” for “5,”, “only” for “only LPS-treated”"}, "[7]": {"tested_on": "MBD-1", "assay": "Quantity-dependency of glycyrrhizin on MBD-1 production ability restoration (Transwell co-culture, ELISA)", "assay_type": "cell-based, mouse", "conditions": "48 hours", "protocol": "Epidermal keratinocytes (2×10^6 cells/ml) were collected from the skin of a normal mouse. Furthermore, a normal mouse was given a burn injury on its dorsal side, and after 12 hours, Gr-1^+CD11b^+ cells (5×10^5 cells/ml) were collected from the skin tissues around the burn site. Using the medium for keratinocyte culture as a medium, and making glycyrrhizin to be co-present in an amount of 1 μg/ml (Example 6), 10 μg/ml (Example 7), 100 μg/ml (Example 8) or 300 μg/ml (Example 9), the epidermal keratinocytes and the Gr-1^+CD11b^+ cells were cultured in a same Transwell at 37° C. The amount of MBD-1 in the supernatant of the culture fluid after 48 hours from the initiation of culture was measured by ELISA. The results are shown in the semilogarithmic graph of FIG. 8. The experiment was carried out in the same manner as in Examples 6 to 9, except that glycyrrhizin was not made to be co-present, and the amount of MBD-1 in the supernatant of the culture fluid was measured. The results are shown in the bar graph of FIG. 8. […] Furthermore, the two graphs share the vertical axis (the amount of MBD-1)."}, "[8]": {"tested_on": "CCL2", "assay": "CCL2 production by Gr-1+CD11b+ cells (ELISA)", "assay_type": "cell-based, mouse", "conditions": "10 μg/ml; 48 hours; vs no glycyrrhizin", "protocol": "as §2"}, "[9]": {"tested_on": "MBD-1", "assay": "MBD-1 production of epidermal keratinocytes cultured with recombinant CCL2 and/or IL-10", "assay_type": "cell-based, mouse", "conditions": "recombinant CCL2 5 ng/ml and/or IL-10 1 ng/ml; 48 hours", "protocol": "Epidermal keratinocytes (2×10^6 cells/ml) collected from the skin of a normal mouse were cultured at 37° C. in the co-presence of CCL2 (5 ng/ml) (Reference Example 18), IL-10 (1 ng/ml) (Reference Example 19), or CCL2 (5 ng/ml) and IL-10 (1 ng/ml) (Reference Example 20), which had been produced by a known recombinant DNA technology using a recombinant. The amount of MBD-1 in the supernatant of the culture fluid after 48 hours from the initiation of culture was measured by ELISA."}},
  "data": [
    {"molecule": "CC1(C)[C@@H](O[C@H]2O[C@H](C(=O)O)[C@@H](O)[C@H](O)[C@H]2O[C@@H]2O[C@H](C(=O)O)[C@@H](O)[C@H](O)[C@H]2O)CC[C@]2(C)[C@H]3C(=O)C=C4[C@@H]5C[C@@](C)(C(=O)O)CC[C@]5(C)CC[C@@]4(C)[C@]3(C)CC[C@@H]12", "note": "[glycyrrhizin]", "values": [
      {"measurement": "MBD-3 production ability promoting effect against LPS-treated epidermal keratinocytes", "setting": "[1]; LPS-treated epidermal keratinocytes alone", "value": "did not have an MBD-3 production ability promoting effect"},
      {"measurement": "amount of MBD-3 in culture supernatant vs no glycyrrhizin", "setting": "[1]; co-culture of LPS-treated epidermal keratinocytes and Gr-1+CD11b+ cells", "value": "larger"},
      {"measurement": "MBD-3 production ability inhibiting effect of Gr-1+CD11b+ cells against LPS-treated epidermal keratinocytes", "setting": "[1]; co-culture", "value": "reduced this inhibiting effect"},
      {"measurement": "deaths among the mice (survival)", "setting": "[2]; 100 CFU P. aeruginosa at burn site, 10 mg/kg i.p. at 2, 24 and 72 hours after burn, up to the 7th day, 10 mice", "value": "none of the individuals died"},
      {"measurement": "survival rate compared with mice not administered with glycyrrhizin (physiological saline)", "setting": "[2]; 100 CFU P. aeruginosa, 10 mg/kg i.p. at 2, 24 and 72 hours, after 2 days and on", "value": "markedly high"},
      {"measurement": "amount of MBD-1 in skin tissue homogenate vs saline mouse", "setting": "[3]", "value": "larger"},
      {"measurement": "IL-10 production ability of Gr-1+CD11b+ cells", "setting": "[4]", "value": "inhibited"},
      {"measurement": "amount of Pseudomonas aeruginosa in the blood specimen vs saline mouse", "setting": "[5]", "value": "markedly reduced"},
      {"measurement": "amount of Pseudomonas aeruginosa in the spleen homogenate specimen vs saline mouse", "setting": "[5]", "value": "markedly reduced"},
      {"measurement": "amount of MBD-1 in culture supernatant vs no glycyrrhizin", "setting": "[6]; co-culture of epidermal keratinocytes and Gr-1+CD11b+ cells", "value": "larger"},
      {"measurement": "MBD-1 production ability inhibiting effect of Gr-1+CD11b+ cells against epidermal keratinocytes", "setting": "[6]; co-culture", "value": "reduced this inhibiting effect"},
      {"measurement": "MBD-1 production ability promoting effect against epidermal keratinocytes", "setting": "[6]; epidermal keratinocytes alone", "value": "did not have an MBD-1 production ability promoting effect"},
      {"measurement": "MBD-1 production ability restoring effect", "setting": "[7]; glycyrrhizin 10 μg/ml (Example 7)", "value": "particularly excellent"},
      {"measurement": "MBD-1 production ability restoring effect", "setting": "[7]; glycyrrhizin 100 μg/ml (Example 8)", "value": "particularly excellent"},
      {"measurement": "MBD-1 production ability restoring effect", "setting": "[7]; glycyrrhizin 300 μg/ml (Example 9)", "value": "particularly excellent"},
      {"measurement": "CCL2 production ability of Gr-1+CD11b+ cells", "setting": "[8]", "value": "inhibited"}
    ]},
    {"molecule": "CCL2: chemokine CCL2 produced by known recombinant DNA technology, 5 ng/ml (Reference Example 18)", "values": [
      {"measurement": "MBD-1 production ability of the epidermal keratinocytes", "setting": "[9]", "value": "inhibited"}
    ]},
    {"molecule": "IL-10: interleukin-10 produced by known recombinant DNA technology, 1 ng/ml (Reference Example 19) (protein, UniProt P18893 19-178, looked up) Interleukin-10: SRGQYSREDNNCTHFPVGQSHMLLELRTAFSQVKTFFQTKDQLDNILLTDSLMQDFKGYLGCQALSEMIQFYLVEVMPQAEKHGPEIKEHLNSLGEKLKTLRMRLRRCHRFLPCENKSKAVEQVKSDFNKLQDQGVYKAMNEFDIFINCIEAYMMIKMKS", "values": [
      {"measurement": "MBD-1 production ability of the epidermal keratinocytes", "setting": "[9]", "value": "inhibited"}
    ]}
  ]
}
